Test results from US8193377B2, “(−)-epigallocatechin gallate derivatives for inhibiting proteasome” (The Hong Kong Polytechnic University, priority 2004, dated 2012).

What was measured:
VA-13 cells [1] = assay: Nuclear staining (Hoechst) for apoptotic morphology, VA-13; type: cell-based, human; conditions: 25 μM, 24 h
Experimental: After each drug treatment, both detached and attached VA-13 and WI-38 cells were stained Hoechst 33342 to assess for apoptosis. Briefly, cells were washed 2× in PBS, fixed for 1 h with 70% ethanol at 4° C., washed 3× in PBS, and stained with […] Hoechst for 30 min in the dark at room temperature. Detached cells were plated on a slide and attached cells were visualized on the plate with a fluorescent microscope at 10× or 40× resolution (Zeiss, Germany). Digital Scientific obtained images with AxioVision 4.1 and adjusted using Adobe Photoshop 6.0.
Next, apoptotic nuclear morphology is examined after treatment with natural (−)-EGCG, 2, and 2a (FIG. 12B). […] A comparison among all the protected analogs was then performed using 25 μM for 24 h. […] All of the protected analogs induced apoptosis in transformed (VA-13), but not normal (WI-38) cells (FIGS. 12B and 12C).

VA-13 cells [2] = assay: Immunostaining of apoptotic cells with anti-cleaved PARP-FITC; type: cell-based, human; conditions: 25 μM, 24 h
Experimental: Immunostaining of apoptotic cells was performed by addition of a FITC-conjugated polyclonal antibody that recognizes cleaved poly(ADP-ribose) polymerase (PARP) and visualized on an Axiovert 2 5 (Zeiss; Thornwood, N.Y.) microscope. Cells were grown to about 80% confluency in 60 mm dishes. VA-13 cells were then treated with VP-16, 2, or 2a (25 μM) for 24 h. Following treatment, both suspension and adhering cells were collected and washed twice in PBS pH 7.4. The cells were washed between all steps listed below and all washes are 1 min duration with PBS. Cells were then fixed in ice-cold 70% ethanol, permeabilized in 0.1% Triton-X-100 and blocked for 30 min in 1% bovine serum albumin (BSA) at room temperature. Incubation with the primary FITC-conjugated-p85/PARP antibody was for 30 min at 4° C. in the dark with mild shaking. Cell suspension was then transferred to glass slides in the presence of Vector Shield mounting medium with DAPI. Images were captured using AxioVision 4.1 and adjusted using Adobe Photoshop 6.0 software. Cell death was quantified by counting the number of apoptotic cells over the total number of cells in the same field. Data are mean of duplicate experiments ±SD.
(§1) It has been shown that proteasome inhibition can induce apoptosis in a wide variety of cancer cells, but not in normal, non-transformed cells (An B et al). Jurkat T cells are treated with 25 μM of each of the selected polyphenols and their protected analogs for 24 h to investigate their abilities to induce apoptotic cell death. […] The unprotected 2 induced much less apoptosis (21%), while 25 μM VP-16, used as a positive control, induced 92% apoptosis (FIGS. 10C and 10D). Counterstain with DAPI, which binds to the minor groove in A-T rich regions of DNA, was decreased drastically in apoptotic cells (FIG. 10C), consistent with DNA fragmentation in late stage apoptosis.

[3] = molecular target: T1, purified rabbit 20s proteasome (Oryctolagus cuniculus, UniProt G1T4Q9); assay: Inhibition of chymotrypsin-like activity of purified 20S proteasome; type: biochemical
T1 construct: purchased Boston Biochem (Cambridge, Mass.)
T1 sequence (G1T4Q9 1-263): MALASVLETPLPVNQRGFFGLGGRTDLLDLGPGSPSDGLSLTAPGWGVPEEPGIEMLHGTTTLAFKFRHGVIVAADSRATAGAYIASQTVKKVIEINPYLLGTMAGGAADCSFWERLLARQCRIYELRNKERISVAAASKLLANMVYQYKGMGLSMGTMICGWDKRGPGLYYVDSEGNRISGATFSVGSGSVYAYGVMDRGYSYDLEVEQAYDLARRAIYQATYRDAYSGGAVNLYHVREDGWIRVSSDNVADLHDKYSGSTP
Experimental: Measurement of the chyrnotrypsin-like activity of the 20s proteasome was performed by incubating 0.5 μg of purified rabbit 20s proteasome with 40 μM fluorogenic peptide substrate, Suc-Leu-Leu-Val-Tyr-AMC, with or without various concentrations of natural and synthetic tea polyphenols as described previously (Nam S et. al.).
In order to test this hypothesis, proteasome activity was tested both in vitro and in intact Jurkat T cells with either 1 or (−)-EGCG (as a positive control). First, 1 and commercial (−)-EGCG were dissolved in DMSO and their effects on the chymotrypsin-like activity of purified 20S proteasomes were measured. […] In contrast, (−)-EGCG at 10 μM inhibited 80-90% of the proteasomal chymotrypsin-like activity. Therefore, as predicted, 1 outside of a cellular system is not a proteasome inhibitor.
Up to 25 μM of all protected and unprotected compounds were incubated with a purified 20s proteasome and a fluorogenic substrate for chyrnotrypsin activity for 30 min. The half-maximal inhibitory concentration or IC50 was then determined. […] This is consistent with the results above.

[4] = molecular target: T2, proteasomal chymotrypsin-like activity in Jurkat T cells (Homo sapiens, UniProt P28074); assay: Proteasomal chymotrypsin-like activity in intact Jurkat T cells / their lysates; type: cell-based; conditions: 25 μM, 24 h, Jurkat T
T2 construct: measurement of the proteasomal chymotrypsin-like activity in the prepared lysates; endogenous in cells; host or cells: Jurkat T cells (human leukemia)
T2 sequence (P28074 60-263): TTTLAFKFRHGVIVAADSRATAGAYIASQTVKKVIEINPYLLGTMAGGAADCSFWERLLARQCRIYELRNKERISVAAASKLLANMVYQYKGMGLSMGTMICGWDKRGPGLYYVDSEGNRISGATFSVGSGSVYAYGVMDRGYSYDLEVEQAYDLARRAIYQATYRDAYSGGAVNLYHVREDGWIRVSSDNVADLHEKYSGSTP
Experimental: VA-13 or WI-38 cells were grown in 24 well plates (2 ml/well) to 70-80% confluency, followed by 24 h treatment with […] (−)-EGCG, 2, or 2a. […] Suc-Leu-Leu-Val-Tyr-AMC substrate was then added for 2.5 h at 37° C. and the chyrnotrypsin-like activity was measured as described above. Alternatively, cells were treated with each compound at 25 μM for 4 or 24 h, and harvested and lysed. Suc-Leu-Leu-Val-Tyr-AMC (40 μM) was then incubated with the prepared cell lysates for 2.5 h and the chymotrypsin-like activity was measured as described above.
If 1 converts to (−)-EGCG inside the cells, proteasome inhibition in vivo should be detected. To examine this possibility, human Jurkat cells was treated with 25 μM of 1 or (−)-EGCG for 12 or 24 h, followed by measurement of proteasome activity by using a chymotrypsin-like specific fluorogenic substrate in intact cells (FIG. 6a) or Western blot for ubiquinated proteins (FIG. 6b). […] To analyze the intracellular level of polyubiquitinated proteins, cells were lysed after 12 hours incubation and subjected to Western blotting. […] It is possible that the amount of EGCG generated from 1, and thus its biological activity inside the cells depends on a combination of factors: the relative permeability of 1 into the cells, the amount of esterase enzymes and the amount of anti-oxidants that may be present in the cells at any time.
To determine whether the unprotected and protected polyphenol analogs could inhibit the proteasomal activity in intact cells, leukemia Jurkat T cells were treated with each compound at 25 μM for 4 and 24 h, followed by collection of cell pellets and measurement of the proteasomal chymotrypsin-like activity in the prepared lysates.

[5] = test system: phosphorylated Akt (p-Akt); assay: Western blot for phosphorylated Akt in Jurkat T cells; type: cell-based, human; conditions: 25 μM, 24 h
Experimental: (−)-EGCG and 1 were incubated with Jurkat T cells for 24 h at 5, 10 and 25 μM, followed by Western blot analysis using a specific antibody to phosphorylated Akt (FIG. 7). […] Actin was used as a loading control.

[6] = Stability test in RPMI 1640 culture medium, HPLC; conditions: 37° C.
Experimental: The stability of 1 with (−)-EGCG in a culture medium (RMPI) is compared, which mimics the body fluid with a pH value around 8. (−)-EGCG or 1 at 0.1 mM was incubated in 1 mL RMPI at 37° C. at indicated times. At different time points, the medium was analyzed by HPLC for the amount of tested compound remaining.

[7] = test system: ubiquitinated proteins, Bax, p27, IκBα in Jurkat T cells; assay: Western blot for ubiquitinated proteins and proteasome targets (Bax, p27, IκBα) in Jurkat T cells; type: cell-based, human; conditions: 25 μM
Experimental: (§2) Whole cells extracts were prepared as described previously (An B, Goldfarb R H, Siman R, Dou Q P. Novel dipeptidyl proteasome inhibitors overcome Bc1-2 protective function and selectively accumulate the cyclin-dependent kinase inhibitor p27 and induce apoptosis in transformed, but not normal, human fibroblasts. Cell Death Differ 1998; 5: 1062-75.). Analysis of Bax, IKBa, p27, PAW, and ubiquitinated protein expression were performed using monoclonal or polyclonal antibodies according to previously reported protocols (An B et. al.).
To determine what effects the synthetic tea analogs had on the proteasome in vivo, Jurkat cells were treated with 25 μM of each synthetic compound for either 4 or 24 h, with (−)-EGCG as a control (FIGS. 9A and 9B). […] This is consistent with the idea that protected analogs are potent inhibitors of the proteasome at an earlier time point and that after 24 h of treatment the ubiquitinated proteins are being depleted by deubiquitinating enzymes. […] The putative ubiquitinated IκBα band is still found in cells treated with 2a, 3a, and 4a (FIG. 9B, Lanes 9, 5, 7). The presumed ubiquinated IκBα band is now absent in the 24 h treatment, possibly due to deubiquitination (FIG. 9B). Actin was used as a loading control in this experiment.
The pro-apoptotic protein Bax and the cyclin-dependent kinase inhibitor p27 are natural proteasome targets. If the peracetate-protected polyphenols inhibit the intact proteasome activity, we would expect accumulation of Bax and p27 in these cells. To test this idea, Jurkat T cells were treated with both protected and unprotected compounds and lysates were analyzed by Western blot using specific antibodies to Bax and p27 (FIG. 15). After 4 h of treatment, the peracetate-protected analogs 24* and 19*, but not their unprotected analogs, were able to increase accumulation of both Bax (by 3- and 2.5-fold, respectively) and p27 (6- and 11-fold, respectively) (FIG. 15A). After 24 h treatment, Bax levels were increased in cells treated with all of the peracetate-protected compounds (13-, 12-, 40- and 36-fold, respectively, by 24*, 19*, 21* and 23*).

MCF-7 cells = assay: MTT assay; type: cell-based, human; conditions: 24 h
Experimental: MTT was used to determine effects of polyphenols on overall proliferation of tumor cells. Human breast MCF-7 cells were plated in a 96 well plate and grown to 70-80% confluency, followed by addition of analogs for 24 h. MTT (1 mg/ml) in PBS was then added to wells and incubated at 37° C. for 4 hours to allow for complete cleavage of the tetrazolium salt by metabolically active cells. Next, the MTT was removed and 100 μl of DMSO was added and colorimetric analysis performed using a multilabel plate reader at 560 nm (Victor^3; Perkin Elmer). Absorbance values plotted are the mean from triplicate experiments.
Treated breast cancer (MCF-7) cells were then treated with 5 or 25 μM of peracetate-protected analogs for 24 h, followed by MTT analysis to determine their effects on cell proliferation. Compound 1 at 25 μM inhibited cellular proliferation by 40% (FIG. 11A).

LNCaP cells [8] = assay: Apoptotic morphological changes, phase contrast; type: cell-based, human; conditions: 25 μM, 24 h
Jurkat T cells [9] = assay: Trypan blue cell death assay in Jurkat T cells; type: cell-based, human; conditions: 24 h
Jurkat T cells [10] = assay: Western blot for PARP cleavage in Jurkat T cells; type: cell-based, human; conditions: 25 μM, 24 h
Experimental: as §2, §1
To determine if the cell death observed (FIG. 16) was due to the induction of apoptosis, a similar experiment was performed in Jurkat T cells, followed by measurement of caspase-3 activation and PARP cleavage.

LNCaP cells [11] = assay: Soft agar colony formation assay; type: cell-based, human; conditions: 25 μM once at plating, 21 days

Which apoptotic nuclear morphology (VA-13 cells [1]) does the source give for O=C(O[C@@H]1Cc2c(O)cc(O)cc2O[C@H]1c1cc(O)c(O)c(O)c1)c1cccc(O)c1 (relative stereo) [Compound 2, (2S*,3R*)-trans-5,7-Bis(hydroxy)-2-[3,4,5-tris(hydroxy)phenyl]chroman-3-yl 3-(hydroxy)benzoate] here?
The apoptotic nuclear morphology was “little or no apoptosis”.

What about the “apoptotic cells (p85 cleaved PARP)” value (VA-13 cells [2]) of the same molecule?
The value was 21%.

What about the IC50 ([3]; up to 25 μM, 30 min incubation, read-out: IC50) of the same molecule?
Its IC50 is roughly 9.9 µM.

With CC(=O)Oc1cc(OC(C)=O)c2c(c1)O[C@H](c1cc(OC(C)=O)c(OC(C)=O)c(OC(C)=O)c1)[C@H](OC(=O)c1cc(OC(C)=O)c(OC(C)=O)c(OC(C)=O)c1)C2 [Compound 1, peracetate (−)-EGCG] as the molecule, how does the “inhibition of proteasome activity in intact cells” value [4] read?
The value was 42%.

What about the “reduction of p-Akt level (densitometry)” value [5] of the same molecule?
Its value is 73%.

And the “time after which compound disappeared completely” value ([6]; 0.1 mM in RPMI, pH around 8)?
Its value is 2 h.

And the “stability relative to (−)-EGCG” value ([6]; RPMI culture medium)?
Its value is 6 times.

And the “level of ubiquitinated proteins” value ([7]; 12 h)?
The value was “comparable levels of ubiquitinated proteins to that of natural (−)-EGCG”.

What about the “inhibition of cellular proliferation” value (MCF-7 cells; 25 μM) of the same molecule?
Its value is 40%.

What about the apoptotic morphological changes (LNCaP cells [8]) of the same molecule?
The apoptotic morphological changes was “mild morphological changes”.

What about the “inhibition of proteasomal chymotrypsin-like activity” value ([3]; 10 μM, purified 20S proteasome) of the same molecule?
The value was “completely inactive”.

And the cell death (Jurkat T cells [9]; 10 μM)?
The cell death was “up to 15%”.

For CC(=O)Oc1cc(OC(C)=O)cc(C(=O)O[C@@H]2Cc3c(OC(C)=O)cc(OC(C)=O)cc3O[C@H]2c2cc(OC(C)=O)c(OC(C)=O)c(OC(C)=O)c2)c1 (relative stereo) [Compound 4a, (2S*,3R*)-trans-5,7-Bis(acetyloxy)-2-[3,4,5-tris(acetyloxy)phenyl]chroman-3-yl 3,5-bis(acetyloxy)benzoate], which “apoptosis-specific PARP cleavage” value (Jurkat T cells [10]) is on record?
The value was “induced apoptosis-specific PARP cleavage”.

What about the “accumulation of p27” value ([7]; 24 h) of the same molecule?
Its value is “Accumulation of p27”.

What about the “time course of ubiquitinated protein accumulation” value ([7]; up to 8 h) of the same molecule?
Its value is “as early as 2 h and lasting up to 8 h”.

And the “inhibition of cellular proliferation” value (MCF-7 cells; 5 μM)?
Its value is 50%.

And the “inhibition of cellular proliferation” value (MCF-7 cells; 25 μM)?
Its value is 70%.

And the “colony formation in soft agar” value (LNCaP cells [11])?
The value was “most potent inhibitors of colony formation”.

What about the apoptotic morphological changes (LNCaP cells [8]) of the same molecule?
Its apoptotic morphological changes is “dramatic round-up, detachment, and cellular fragmentation”.

What about the “cell death (trypan blue)” value (Jurkat T cells [9]; 25 μM) of the same molecule?
Its value is 83%.
